Results from US20150315188A1, “COMPOUNDS AND METHODS FOR TREATMENT OF HYPERTENSION” (MEDIVATION TECHNOLOGIES, INC., priority 2012, published 2015).

Experiments:
[1] = target: T1, Human adrenergic α1B receptor (Homo sapiens, UniProt P35368); test: Radioligand binding, adrenergic α1B (Protocol Group B); set-up: purchased Milipore (Millipore); conditions: for Percentage inhibition of ligand binding, Adrenergic α1B (0.1 μM) / inhibition at 0.1 µM: 0.1 μM compound; for Percentage inhibition of ligand binding, Adrenergic α1B (0.1 μM) / Percentage inhibition of ligand binding, Adrenergic α1B (0.3 μM) / Ki / inhibition at 0.1 µM / inhibition at 0.3 µM: Protocol Group B; for Percentage inhibition of ligand binding, Adrenergic α1B (0.3 μM) / inhibition at 0.3 µM: 0.3 μM compound; for Ki: estimated Ki; for inhibition at 0.1 µM: read-out: Percentage inhibition of ligand binding, Adrenergic α1B (0.1 μM); for inhibition at 0.3 µM: read-out: Percentage inhibition of ligand binding, Adrenergic α1B (0.3 μM)
T1 sequence (P35368 1-520): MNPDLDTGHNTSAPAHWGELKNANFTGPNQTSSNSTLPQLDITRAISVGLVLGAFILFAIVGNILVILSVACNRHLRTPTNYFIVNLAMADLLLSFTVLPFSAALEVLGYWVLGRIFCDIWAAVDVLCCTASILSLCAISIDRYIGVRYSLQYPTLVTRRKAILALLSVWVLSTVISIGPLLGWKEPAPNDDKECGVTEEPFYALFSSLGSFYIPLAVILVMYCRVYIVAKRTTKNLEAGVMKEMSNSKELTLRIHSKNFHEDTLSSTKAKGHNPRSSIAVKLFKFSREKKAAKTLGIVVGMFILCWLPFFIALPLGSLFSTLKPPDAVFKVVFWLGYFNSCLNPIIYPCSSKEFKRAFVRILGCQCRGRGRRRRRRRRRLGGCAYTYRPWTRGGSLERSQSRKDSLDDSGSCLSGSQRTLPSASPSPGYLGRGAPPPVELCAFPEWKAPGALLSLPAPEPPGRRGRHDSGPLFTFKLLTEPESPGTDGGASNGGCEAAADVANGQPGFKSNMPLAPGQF
Summary of the method: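 Values are percent inhibition of specific [3H]prazosin (0.3 nM) binding or estimated Ki, from filtration counting. Human α1B recombinant membranes, Tris-HCl pH 7.4 buffer with MgCl2 and EDTA, 60 min at 25 °C, 1% DMSO vehicle; 10 μM prazosin defined nonspecific binding.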

[2] = target: T1, Human adrenergic α1B receptor; test: β-Arrestin GPCR functional assay, adrenergic α1B (Protocol B); assay type: cell-based; conditions: for IC50: β-arrestin, antagonist vs nor-epinephrine EC80
Summary of the method: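 Antagonist mode: norepinephrine at its EC80 of 50 nM was added for 90 min at 37°C after a 30-min compound pretreatment of CHO cells expressing the human α1B receptor, with DMSO at 1% final. β-Arrestin recruitment read by chemiluminescence (60 min, RT, dark) and expressed as percent inhibition or IC50.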

[3] = target: T2, Human adrenergic α2B receptor (Homo sapiens, UniProt P18089); test: β-Arrestin GPCR functional assay, adrenergic α2B (Protocol B); assay type: cell-based; conditions: for IC50: β-arrestin, antagonist vs nor-epinephrine EC80, read-out: IC50 Adrenergic α2B
T2 sequence (P18089 1-450): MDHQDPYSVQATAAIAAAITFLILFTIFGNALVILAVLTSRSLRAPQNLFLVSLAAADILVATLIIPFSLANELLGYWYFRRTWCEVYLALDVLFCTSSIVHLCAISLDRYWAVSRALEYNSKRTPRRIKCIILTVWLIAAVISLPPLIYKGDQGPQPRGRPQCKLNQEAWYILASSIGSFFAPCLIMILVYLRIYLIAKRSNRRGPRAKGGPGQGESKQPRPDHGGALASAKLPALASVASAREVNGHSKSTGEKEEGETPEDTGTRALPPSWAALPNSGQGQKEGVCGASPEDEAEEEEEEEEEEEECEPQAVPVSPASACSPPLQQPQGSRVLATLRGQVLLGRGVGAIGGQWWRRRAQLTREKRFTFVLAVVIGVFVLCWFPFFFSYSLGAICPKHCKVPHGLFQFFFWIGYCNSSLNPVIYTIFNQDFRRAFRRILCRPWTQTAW
Summary of the method: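 CHO cells overexpressing human α2B (PathHunter β-arrestin), 12,000 per well, 24 h at 37° C; compounds in 1% DMSO 30 min, then 50 nM norepinephrine (EC80) 90 min at 37° C.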

[4] = target: T2, Human adrenergic α2B receptor; test: Radioligand binding, adrenergic α2B (Protocol Group B); set-up: purchased Milipore (Millipore); conditions: for Percentage inhibition of ligand binding, Adrenergic α2B (10 nM) / inhibition at 0.01 µM: 10 nM compound; for Percentage inhibition of ligand binding, Adrenergic α2B (10 nM) / Percentage inhibition of ligand binding, Adrenergic α2B (30 nM) / Percentage inhibition of ligand binding, Adrenergic α2B (0.1 μM) / Ki / inhibition at 0.01 µM / inhibition at 0.03 µM / inhibition at 0.1 µM: Protocol Group B; for Percentage inhibition of ligand binding, Adrenergic α2B (10 nM): 0.01 µM; for Percentage inhibition of ligand binding, Adrenergic α2B (30 nM) / inhibition at 0.03 µM: 30 nM compound; for Percentage inhibition of ligand binding, Adrenergic α2B (30 nM): 0.03 µM; for Percentage inhibition of ligand binding, Adrenergic α2B (0.1 μM) / inhibition at 0.1 µM: 0.1 μM compound; for Ki: estimated Ki, read-out: Ki α2B; for inhibition at 0.01 µM: read-out: Percentage inhibition of ligand binding, Adrenergic α2B (10 nM); for inhibition at 0.03 µM: read-out: Percentage inhibition of ligand binding, Adrenergic α2B (30 nM); for inhibition at 0.1 µM: read-out: Percentage inhibition of ligand binding, Adrenergic α2B (0.1 μM)
Summary of the method: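 Compounds at various concentrations in 1% DMSO were tested on recombinant membranes in Tris-HCl pH 7.4 buffer containing MgCl2, CaCl2 and 0.2% BSA.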

[5] = 1 nM compound, concentration series, 0.001 µM
[6] = 3.2 nM compound, concentration series, 0.0032 µM
[7] = 0.032 μM compound, concentration series, 0.032 µM
[8] = 0.1 μM compound, nor-epinephrine at EC80 (50 nM)
[9] = 10 nM compound, nor-epinephrine at EC80 (50 nM)

Structure (SMILES) | Percentage inhibition of ligand binding, Adrenergic α1B (0.1 μM) [1] [%] | Percentage inhibition of ligand binding, Adrenergic α1B (0.3 μM) [1] [%] | Ki [1] [nM] | IC50 [2] [nM] | IC50 [3] [nM] | Percentage inhibition of ligand binding, Adrenergic α2B (10 nM) [4] [%] | Percentage inhibition of ligand binding, Adrenergic α2B (30 nM) [4] [%] | Ki [4] [nM] | inhibition at 0.01 µM [4] [%] | inhibition at 0.03 µM [4] [%] | further results
CCCOC(Cn1c2c(c3cc(C)ccc31)CN(C)CC2)c1ccncc1 (single isomer, unassigned) [42b] | 27 | 45 | 199 | 1140 | 41 | 86 | 97 | 1.3 | – | – | Percentage inhibition of ligand binding, Adrenergic α2B (0.1 μM) [4]: 100%
Cc1cc(Cl)c2c(c1)c1c(n2CC(C)(O)c2ccncc2)CCN2CCCC12 (single isomer, unassigned) [91a] | – | – | 20.9 | 213 | 16.4 | – | – | 0.7 | 93 | 95 | inhibition at 0.1 µM [1]: 59%; inhibition at 0.3 µM [1]: 81%
Cc1cc(Cl)c2c(c1)c1c(n2CC(C)(O)c2ccncc2)CCN2CCCC12 (single isomer, unassigned) [91b] | 43 | 68 | 38.2 | 283 | 18.7 | 95 | 97 | 0.93 | – | – | –
Cc1cc(C)c2c(c1)c1c(n2CC(C)(O)c2ccncc2)CCN2CCCC12 (single isomer, unassigned) [19b] | 60 | 85 | 37.5 | 351 | 52 | 91 | 97 | 2.4 | – | – | Percentage inhibition of ligand binding, Adrenergic α1B, 1 nM [1, 5]: 3%; Percentage inhibition of ligand binding, Adrenergic α1B, 3.2 nM [1, 6]: 6%; Percentage inhibition of ligand binding, Adrenergic α1B, 10 nM ([1]; 10 nM compound, concentration series, 0.01 µM): 1%; Percentage inhibition of ligand binding, Adrenergic α1B, 0.032 μM [1, 7]: 15%; Percentage inhibition of ligand binding, Adrenergic α1B, 0.32 μM ([1]; 0.32 μM compound, concentration series, 0.32 µM): 76%; Percentage inhibition of ligand binding, Adrenergic α1B, 1 μM ([1]; 1 μM compound, concentration series, 1 µM): 87%; inhibition at 3.2 µM ([1]; 3.2 μM compound, concentration series, read-out: Percentage inhibition of ligand binding, Adrenergic α1B, 3.2 μM): 92%; Percentage inhibition, Adrenergic α1B [2, 8]: 25%; Percentage inhibition, Adrenergic α1B ([2]; 0.3 μM compound, nor-epinephrine at EC80 (50 nM)): 52%; Percentage inhibition, Adrenergic α2B [3, 9]: 15%; Percentage inhibition, Adrenergic α2B ([3]; 30 nM compound, nor-epinephrine at EC80 (50 nM)): 34%; Percentage inhibition, Adrenergic α2B [3, 8]: 86%; Percentage inhibition of ligand binding, Adrenergic α2B, 0.032 nM ([4]; 0.032 nM compound, concentration series, 32 pM): 6%; Percentage inhibition of ligand binding, Adrenergic α2B, 0.1 nM ([4]; 0.1 nM compound, concentration series, 0.0001 µM): 0%; Percentage inhibition of ligand binding, Adrenergic α2B, 0.32 nM ([4]; 0.32 nM compound, concentration series, 0.00032 µM): 2%; Percentage inhibition of ligand binding, Adrenergic α2B, 1 nM [4, 5]: 4%; Percentage inhibition of ligand binding, Adrenergic α2B, 3.2 nM [4, 6]: 31%; Percentage inhibition of ligand binding, Adrenergic α2B, 0.032 μM [4, 7]: 95%; Percentage inhibition of ligand binding, Adrenergic α2B (0.1 μM) [4]: 99%
Cc1ccc2c(c1)c1c(n2CC(OC2CCCC2)c2ccncc2)CCN(C)C1 (single isomer, unassigned) [35a] | 40 | 71 | 60 | 672 | 255 | – | – | 2.9 | 63 | 86 | inhibition at 0.1 µM [4]: 96%
Cc1cc(F)cc2c3c(n(CC(C)(O)c4cccnc4)c12)CCN1CCCC31 (single isomer, unassigned) [75a] | −1 | 12 | – | 719 | 17 | 8 | 40 | – | – | – | inhibition at 0.1 µM [4]: 87%
Cc1cc(F)c2c(c1)c1c(n2CC(O)c2ccncc2)CCN2CCCC12 (single isomer, unassigned) [137b] | 74 | 94 | 7.3 | 35.6 | 6.57 | 106 | 107 | 0.79 | – | – | –
OC(Cn1c2c(c3cc(Cl)cc(F)c31)C1CCCN1CC2)c1ccncc1 (single isomer, unassigned) [135a] | – | – | 23 | 189 | 53.1 | – | – | 2.95 | 79 | 93 | inhibition at 0.1 µM [1]: 71%; inhibition at 0.3 µM [1]: 92%
Cc1ccc2c(c1)c1c(n2CC(C)(O)c2ccncc2)CCN2CCCC12 (single isomer, unassigned) [13a] | – | – | 10 | 100 | 30 | – | – | 1.85 | – | – | inhibition at 0.1 µM ([2]; 0.1 μM compound, nor-epinephrine at EC80 (50 nM), read-out: Percentage inhibition, Adrenergic α1B): 49%; inhibition at 0.3 µM ([2]; 0.3 μM compound, nor-epinephrine at EC80 (50 nM), read-out: Percentage inhibition, Adrenergic α1B): 74%; Percentage inhibition, Adrenergic α2B [3, 9]: 9%; inhibition at 0.03 µM ([3]; 30 nM compound, nor-epinephrine at EC80 (50 nM), read-out: Percentage inhibition, Adrenergic α2B): 29%; inhibition at 0.1 µM ([3]; 0.1 μM compound, nor-epinephrine at EC80 (50 nM), read-out: Percentage inhibition, Adrenergic α2B): 88%
